In patent US10130655B2, “Composition and method for pre-surgical skin disinfection” (GOJO INDUSTRIES, INC., priority 2006, dated 2018):

Assay: Irritation potential, independent laboratory testing (Total Cumulative Irritation, Berger & Bowman)
Details: in vivo
Text: Independent laboratory testing compared irritation potential of commercial products, controls, and a disinfecting composition according to the present invention.

CCCCCCCCCCCCOS(=O)(=O)[O-].[Na+] [Sodium Lauryl Sulfate]
Berger & Bowman Classification: Possibly Mild in use | CIT Score (Total Cumulative Irritation): 1321.0
